Reference: US9469650B2, “Melampomagnolide B derivatives” (BOARD OF TRUSTEES OF THE UNIVERSITY OF ARKANSAS, priority 2013, dated 2016)

Legend:
CCRF-CEM = test: panel of 60 human tumor cell lines, growth inhibition (Leukemia)
SK-MEL-28 = test: panel of 60 human tumor cell lines, growth inhibition (Melanoma); settings: SK-MEL-28
UACC-62 = test: as above; settings: UACC-62
SNB-19 = test: panel of 60 human tumor cell lines, growth inhibition (CNS Cancer); settings: SNB-19
SNB-75 = test: as above; settings: SNB-75
HCC-2998 = test: panel of 60 human tumor cell lines, growth inhibition (Colon Cancer); settings: HCC-2998
HCT-116 = test: as above; settings: HCT-116
KM12 = test: as above; settings: KM12
786-0 = test: panel of 60 human tumor cell lines, growth inhibition (Renal Cancer); settings: 786-0
A498 = test: as above; settings: A498
RXF 393 = test: as above; settings: RXF 393
UO-31 = test: as above; settings: UO-31
T-47D = test: panel of 60 human tumor cell lines, growth inhibition (Breast Cancer); settings: T-47D
OVCAR-5 = test: panel of 60 human tumor cell lines, growth inhibition (Ovarian Cancer); settings: OVCAR-5
NCI/ADR-RES = test: as above
SK-OV-3 = test: as above; settings: SK-OV-3
DU-145 = test: panel of 60 human tumor cell lines, growth inhibition (Prostate Cancer); settings: DU-145
NCI-H23 = test: panel of 60 human tumor cell lines, growth inhibition (Non-Small Cell Lung Cancer); settings: NCI-H23
NCI-H522 = test: as above; settings: NCI-H522

Question: What does the source list for `C=C1C(=O)O[C@H]2[C@H]1CC/C(COC(=O)CCC(=O)N1CCC(C)CC1)=C\CC[C@@]1(C)O[C@@H]21` [JVM 2-70]?
Answer: Percent Growth (CCRF-CEM; Log10 Concentration −4.0): −56%; Percent Growth (CCRF-CEM; Log10 Concentration −5.0): −32%; Percent Growth (CCRF-CEM; Log10 Concentration −6.0): 64%; Percent Growth (CCRF-CEM; Log10 Concentration −7.0): 92%; Percent Growth (CCRF-CEM; Log10 Concentration −8.0): 98%; GI50 (CCRF-CEM; NCI five dose): 1.4 µM; TGI (CCRF-CEM; NCI five dose): 4.68E−6; Percent Growth (SK-MEL-28; Log10 Concentration −4.0): −79%; Percent Growth (SK-MEL-28; Log10 Concentration −5.0): 4%; Percent Growth (SK-MEL-28; Log10 Concentration −6.0): 95%; Percent Growth (SK-MEL-28; Log10 Concentration −7.0): 100%; Percent Growth (SK-MEL-28; Log10 Concentration −8.0): 89%; GI50 (SK-MEL-28; NCI five dose): 3.1 µM; TGI (SK-MEL-28; NCI five dose): 1.11E−5; Percent Growth (UACC-62; Log10 Concentration −4.0): −87%; Percent Growth (UACC-62; Log10 Concentration −5.0): 33%; Percent Growth (UACC-62; Log10 Concentration −6.0): 92%; Percent Growth (UACC-62; Log10 Concentration −7.0): 94%; Percent Growth (UACC-62; Log10 Concentration −8.0): 97%; GI50 (UACC-62; NCI five dose): 5.15 µM; TGI (UACC-62; NCI five dose): 1.89E−5; Percent Growth (SNB-19; Log10 Concentration −4.0): −80%; Percent Growth (SNB-19; Log10 Concentration −5.0): 73%; Percent Growth (SNB-19; Log10 Concentration −6.0): 95%; Percent Growth (SNB-19; Log10 Concentration −7.0): 96%; Percent Growth (SNB-19; Log10 Concentration −8.0): 95%; GI50 (SNB-19; NCI five dose): 14 µM; TGI (SNB-19; NCI five dose): 2.98E−5; Percent Growth (SNB-75; Log10 Concentration −4.0): −85%; Percent Growth (SNB-75; Log10 Concentration −5.0): 57%; Percent Growth (SNB-75; Log10 Concentration −6.0): 80%; Percent Growth (SNB-75; Log10 Concentration −7.0): 81%; Percent Growth (SNB-75; Log10 Concentration −8.0): 72%; GI50 (SNB-75; NCI five dose): 11.2 µM; TGI (SNB-75; NCI five dose): 2.53E−5; Percent Growth (HCC-2998; Log10 Concentration −4.0): −80%; Percent Growth (HCC-2998; Log10 Concentration −5.0): 59%; Percent Growth (HCC-2998; Log10 Concentration −6.0): 110%; Percent Growth (HCC-2998; Log10 Concentration −7.0): 103%; Percent Growth (HCC-2998; Log10 Concentration −8.0): 106%; GI50 (HCC-2998; NCI five dose): 11.5 µM; TGI (HCC-2998; NCI five dose): 2.65E−5; Percent Growth (HCT-116; Log10 Concentration −4.0): −93%; Percent Growth (HCT-116; Log10 Concentration −5.0): −46%; Percent Growth (HCT-116; Log10 Concentration −6.0): 79%; Percent Growth (HCT-116; Log10 Concentration −7.0): 95%; Percent Growth (HCT-116; Log10 Concentration −8.0): 91%; GI50 (HCT-116; NCI five dose): 1.69 µM; TGI (HCT-116; NCI five dose): 4.25E−6; Percent Growth (KM12; Log10 Concentration −4.0): −87%; Percent Growth (KM12; Log10 Concentration −5.0): 62%; Percent Growth (KM12; Log10 Concentration −6.0): 98%; Percent Growth (KM12; Log10 Concentration −7.0): 102%; Percent Growth (KM12; Log10 Concentration −8.0): 102%; GI50 (KM12; NCI five dose): 12.1 µM; TGI (KM12; NCI five dose): 2.61E−5; Percent Growth (786-0; Log10 Concentration −4.0): −78%; Percent Growth (786-0; Log10 Concentration −5.0): 39%; Percent Growth (786-0; Log10 Concentration −6.0): 100%; Percent Growth (786-0; Log10 Concentration −7.0): 98%; Percent Growth (786-0; Log10 Concentration −8.0): 90%; GI50 (786-0; NCI five dose): 6.64 µM; TGI (786-0; NCI five dose): 2.17E−5; Percent Growth (A498; Log10 Concentration −4.0): −92%; Percent Growth (A498; Log10 Concentration −5.0): 29%; Percent Growth (A498; Log10 Concentration −6.0): 67%; Percent Growth (A498; Log10 Concentration −7.0): 54%; Percent Growth (A498; Log10 Concentration −8.0): 58%; GI50 (A498; NCI five dose): 2.77 µM; TGI (A498; NCI five dose): 1.73E−5; Percent Growth (RXF 393; Log10 Concentration −4.0): −88%; Percent Growth (RXF 393; Log10 Concentration −5.0): −54%; Percent Growth (RXF 393; Log10 Concentration −6.0): 91%; Percent Growth (RXF 393; Log10 Concentration −7.0): 101%; Percent Growth (RXF 393; Log10 Concentration −8.0): 105%; GI50 (RXF 393; NCI five dose): 1.91 µM; TGI (RXF 393; NCI five dose): 4.24E−6; Percent Growth (UO-31; Log10 Concentration −4.0): −84%; Percent Growth (UO-31; Log10 Concentration −5.0): 19%; Percent Growth (UO-31; Log10 Concentration −6.0): 88%; Percent Growth (UO-31; Log10 Concentration −7.0): 94%; Percent Growth (UO-31; Log10 Concentration −8.0): 96%; GI50 (UO-31; NCI five dose): 3.56 µM; TGI (UO-31; NCI five dose): 1.53E−5; Percent Growth (T-47D; Log10 Concentration −4.0): −48%; Percent Growth (T-47D; Log10 Concentration −5.0): 34%; Percent Growth (T-47D; Log10 Concentration −6.0): 94%; Percent Growth (T-47D; Log10 Concentration −7.0): 94%; Percent Growth (T-47D; Log10 Concentration −8.0): 86%; GI50 (T-47D; NCI five dose): 5.45 µM; TGI (T-47D; NCI five dose): 2.61E−5; Percent Growth (OVCAR-5; Log10 Concentration −4.0): −89%; Percent Growth (OVCAR-5; Log10 Concentration −5.0): 41%; Percent Growth (OVCAR-5; Log10 Concentration −6.0): 87%; Percent Growth (OVCAR-5; Log10 Concentration −7.0): 87%; Percent Growth (OVCAR-5; Log10 Concentration −8.0): 86%; GI50 (OVCAR-5; NCI five dose): 6.36 µM; TGI (OVCAR-5; NCI five dose): 2.06E−5; Percent Growth (NCI/ADR-RES; Log10 Concentration −4.0): −52%; Percent Growth (NCI/ADR-RES; Log10 Concentration −5.0): 64%; Percent Growth (NCI/ADR-RES; Log10 Concentration −6.0): 99%; Percent Growth (NCI/ADR-RES; Log10 Concentration −7.0): 104%; Percent Growth (NCI/ADR-RES; Log10 Concentration −8.0): 95%; GI50 (NCI/ADR-RES; NCI five dose): 13.1 µM; TGI (NCI/ADR-RES; NCI five dose): 3.55E−5; Percent Growth (SK-OV-3; Log10 Concentration −4.0): −10%; Percent Growth (SK-OV-3; Log10 Concentration −5.0): 95%; Percent Growth (SK-OV-3; Log10 Concentration −6.0): 99%; Percent Growth (SK-OV-3; Log10 Concentration −7.0): 101%; Percent Growth (SK-OV-3; Log10 Concentration −8.0): 92%; GI50 (SK-OV-3; NCI five dose): 26.8 µM; TGI (SK-OV-3; NCI five dose): 8.06E−5; Percent Growth (DU-145; Log10 Concentration −4.0): −89%; Percent Growth (DU-145; Log10 Concentration −5.0): 26%; Percent Growth (DU-145; Log10 Concentration −6.0): 95%; Percent Growth (DU-145; Log10 Concentration −7.0): 106%; Percent Growth (DU-145; Log10 Concentration −8.0): 107%; GI50 (DU-145; NCI five dose): 4.44 µM; TGI (DU-145; NCI five dose): 1.68E−5; Percent Growth (NCI-H23; Log10 Concentration −4.0): −70%; Percent Growth (NCI-H23; Log10 Concentration −5.0): 33%; Percent Growth (NCI-H23; Log10 Concentration −6.0): 94%; Percent Growth (NCI-H23; Log10 Concentration −7.0): 101%; Percent Growth (NCI-H23; Log10 Concentration −8.0): 95%; GI50 (NCI-H23; NCI five dose): 5.24 µM; TGI (NCI-H23; NCI five dose): 2.09E−5; Percent Growth (NCI-H522; Log10 Concentration −4.0): −71%; Percent Growth (NCI-H522; Log10 Concentration −5.0): −87%; Percent Growth (NCI-H522; Log10 Concentration −6.0): 80%; Percent Growth (NCI-H522; Log10 Concentration −7.0): 96%; Percent Growth (NCI-H522; Log10 Concentration −8.0): 93%; GI50 (NCI-H522; NCI five dose): 1.5 µM; TGI (NCI-H522; NCI five dose): 3.00E−6
